In patent US20130089599A1, “NANO-ENCAPSULATED THERAPEUTICS FOR CONTROLLED TREATMENT OF INFECTION AND OTHER DISEASES” (The United States of America as Represented by the …, priority 2011, published 2013):
≈ marks a conversion by molar mass, not a printed value. Values belong to the molecule of their own block, whether it stands above or below them.

How the values were obtained:
[1] = test system: P. aeruginosa; assay: in vitro antibacterial activity (MIC50); type: cell-based
[2] = test system: P. mirabilis; assay: in vitro antibacterial activity (MIC50); type: cell-based
[3] = test system: A. bumannii; assay: in vitro antibacterial activity (MIC50); type: cell-based; details: for Amount of Antimicrobial Agent required for Inhibition / in vitro antibacterial activity of individual antibiotic (MIC50) / MIC50: A. bumannii; for reduction of MIC50 of Rifampicin in cocktail with silver (control = 1) / reduction of MIC50 of Tobramycin in cocktail with silver (control = 1): A. baumannii
[4] = test system: 4 bacterial strains (A. bumannii, P. aeruginosa, P. mirabilis and S. aureus); assay: in vitro antibacterial activity (MIC50), summary over strains; type: cell-based; details: against all 4 bacterial strains
[5] = test system: S. aureus methicillin resistant strain; assay: MIC50 for inhibition ring formation (MICfir), agar plate; type: cell-based; details: Staphylococcus aureus, MRSA; read-out: 50% minimum inhibitory concentrations (MIC50) needed for growth ring formation
[6] = test system: S. aureus; assay: in vitro antibacterial activity (MIC50); type: cell-based; details: for MIC50: Staphylococcus aureus
[7] = test system: S. aureus; assay: MIC50 for inhibition ring formation (MICfir), agar plate; type: cell-based; details: Staphylococcus aureus; S.a; read-out: 50% minimum inhibitory concentrations (MIC50) needed for growth ring formation
[8] = test system: P.m; assay: as above; type: cell-based; details: Proteus mirabilis, read-out: 50% minimum inhibitory concentrations (MIC50) needed for growth ring formation
[9] = test system: P. aeruginosa; assay: as above; type: cell-based; details: Pseudomonas aeruginosa; P.a; read-out: 50% minimum inhibitory concentrations (MIC50) needed for growth ring formation
[10] = test system: K. pneumoniae; assay: as above; type: cell-based; details: Klebsiella pneumoniae; K.p; read-out: 50% minimum inhibitory concentrations (MIC50) needed for growth ring formation
[11] = test system: A. baumannii; assay: as above; type: cell-based; details: Acinetobacter baumannii; A.b; read-out: 50% minimum inhibitory concentrations (MIC50) needed for growth ring formation
[12] = test system: A. baumannii; assay: effect of storage time on antibiotic functionality; type: physicochemical; details: 1 mg/ml solution stored at 37° C., day 0 to day 35
Method: The effect of storage time on antibiotic functionality of tobramycin and rifampicin against A. baumannii were also tested. Tobramycin and rifampicin solutions (1 mg/ml in water and DMSO, respectively) were kept at room temperature (24° C.) or 37° C. for up to 35 days, and the antimicrobial activities of the antibiotics at different time points were tested by applying the antibiotics to A. Baumannii. MIC50 were determined and compared. […] P values for tobramycin and rifampicin (from day 0 to day 35) are 0.593 and 0.442 respectively (FIG. 3)

in vitro antibacterial activity of individual antibiotic (MIC50) [1]: >1000 mg/mL | in vitro antibacterial activity of individual antibiotic (MIC50) [2]: 23.88 ± 8.43 mg/mL | in vitro antibacterial activity of individual antibiotic (MIC50) [3]: 2.72 ± 0.68 mg/mL
SMILES: CCC[C@@H]1C[C@@H](C(=O)N[C@@H]([C@H]2O[C@H](SC)[C@H](O)[C@@H](O)[C@H]2O)[C@H](C)Cl)N(C)C1 [Clindamycin]
Amount of Antimicrobial Agent required for Inhibition [1]: >1000 mg/mL | Amount of Antimicrobial Agent required for Inhibition [2]: 23.88 ± 8.43 mg/mL | Amount of Antimicrobial Agent required for Inhibition [3]: 2.72 ± 0.68 mg/mL

MIC50 [5]: > 200 µg/mL | in vitro antibacterial activity of individual antibiotic (MIC50) [1]: 0.44 ± 0.12 mg/mL | MIC50 [4]: < 0.01 mg/mL | MIC50 [6]: ≤ 0.001 mg/mL | MIC50 [7]: 2.2 ± 0.16 µg/mL (≈ 4.71 µM) | in vitro antibacterial activity of individual antibiotic (MIC50) [2]: 7.2 ± 0.73 mg/mL | MIC50 [8]: 0.0031 ± 0.0002 mg/mL (≈ 6.63 µM) | MIC50 [9]: 0.0056 ± 0.0002 mg/mL (≈ 12 µM) | MIC50 [10]: 0.00038 ± 5e-05 mg/mL (≈ 0.813 µM) | change of MIC50 on storage (antibiotic functionality) [12]: no significantly change | MIC50 [3]: ≤ 0.001 mg/mL | in vitro antibacterial activity of individual antibiotic (MIC50) [3]: 1.05 ± 0.02 mg/mL | MIC50 [11]: 0.0071 ± 0.0005 mg/mL (≈ 15.2 µM)
SMILES: NC[C@H]1O[C@H](O[C@H]2[C@H](O)[C@@H](O[C@H]3O[C@H](CO)[C@@H](O)[C@H](N)[C@H]3O)[C@H](N)C[C@@H]2N)[C@H](N)C[C@@H]1O [Tobramycin]
Amount of Antimicrobial Agent required for Inhibition [1]: 0.44 ± 0.12 mg/mL | Amount of Antimicrobial Agent required for Inhibition [2]: 7.2 ± 0.73 mg/mL | Amount of Antimicrobial Agent required for Inhibition [3]: 1.05 ± 0.02 mg/mL

Second part, the molecule before the results:

SMILES: C[C@@H](O)[C@H]1C(=O)N2C(C(=O)O)=C(SCCN=CN)C[C@H]12 [Imipenem]
Amount of Antimicrobial Agent required for Inhibition [1]: 0.91 ± 0.56 mg/mL | in vitro antibacterial activity of individual antibiotic (MIC50) [1]: 0.91 ± 0.56 mg/mL | MIC50 [4]: < 0.01 mg/mL | Amount of Antimicrobial Agent required for Inhibition [2]: 1.02 ± 0.01 mg/mL | in vitro antibacterial activity of individual antibiotic (MIC50) [2]: 1.02 ± 0.01 mg/mL | Amount of Antimicrobial Agent required for Inhibition [3]: 10.25 ± 2.33 mg/mL | in vitro antibacterial activity of individual antibiotic (MIC50) [3]: 10.25 ± 2.33 mg/mL

SMILES: CO[C@H]1/C=C/O[C@@]2(C)Oc3c(C)c(O)c4c(O)c(c(/C=N/N5CCN(C)CC5)c(O)c4c3C2=O)NC(=O)/C(C)=C\C=C\[C@H](C)[C@H](O)[C@@H](C)[C@@H](O)[C@@H](C)[C@H](OC(C)=O)[C@@H]1C [Rifampicin]
MIC50 [5]: 0.02 ± 0.001 µg/mL (≈ 0.0243 µM) | Amount of Antimicrobial Agent required for Inhibition [1]: 19.08 ± 6.14 mg/mL | in vitro antibacterial activity of individual antibiotic (MIC50) [1]: 19.08 ± 6.14 mg/mL | MIC50 [4]: < 0.01 mg/mL | MIC50 [6]: ≤ 0.001 mg/mL | MIC50 [7]: 0.02 ± 0.001 µg/mL (≈ 0.0243 µM) | Amount of Antimicrobial Agent required for Inhibition [2]: 3.77 ± 0.92 mg/mL | in vitro antibacterial activity of individual antibiotic (MIC50) [2]: 3.77 ± 0.92 mg/mL | MIC50 [8]: 0.026 ± 0.0035 mg/mL (≈ 31.6 µM) | MIC50 [9]: 0.185 ± 0.0158 mg/mL (≈ 225 µM) | MIC50 [10]: 0.045 ± 0.0036 mg/mL (≈ 54.7 µM) | Amount of Antimicrobial Agent required for Inhibition [3]: 0.085 ± 0.01 mg/mL | MIC50 [3]: ≤ 0.001 mg/mL | in vitro antibacterial activity of individual antibiotic (MIC50) [3]: 0.085 ± 0.01 mg/mL | MIC50 [11]: 0.045 ± 0.0026 mg/mL (≈ 54.7 µM)

SMILES: [Ag+] [Silver Ion]
Amount of Antimicrobial Agent required for Inhibition [1]: 5.34 ± 3.07 mg/mL | reduction of MIC50 of Rifampicin in cocktail with silver (control = 1) ([1]; Silver Ion at Mic 12.5): 1.6 fold | reduction of MIC50 of Tobramycin in cocktail with silver (control = 1) ([1]; Silver Ion at Mic 12.5): 1.6 fold | reduction of MIC50 of Rifampicin in cocktail with silver (control = 1) ([1]; Silver Ion at Mic 25): 4.1 fold | reduction of MIC50 of Tobramycin in cocktail with silver (control = 1) ([1]; Silver Ion at Mic 25): 4.1 fold | reduction of MIC50 of Rifampicin in cocktail with silver (control = 1) ([1]; Silver Ion at Mic 50): 10.4 fold | reduction of MIC50 of Tobramycin in cocktail with silver (control = 1) ([1]; Silver Ion at Mic 50): 10.4 fold | reduction of MIC50 of Rifampicin in cocktail with silver (control = 1) ([6]; Silver Ion at Mic 12.5): 1 fold | reduction of MIC50 of Tobramycin in cocktail with silver (control = 1) ([6]; Silver Ion at Mic 12.5): 1.13 fold | reduction of MIC50 of Rifampicin in cocktail with silver (control = 1) ([6]; Silver Ion at Mic 25): 9.3 fold | reduction of MIC50 of Tobramycin in cocktail with silver (control = 1) ([6]; Silver Ion at Mic 25): 9.3 fold | reduction of MIC50 of Rifampicin in cocktail with silver (control = 1) ([6]; Silver Ion at Mic 50): 21 fold | reduction of MIC50 of Tobramycin in cocktail with silver (control = 1) ([6]; Silver Ion at Mic 50): 21 fold | Amount of Antimicrobial Agent required for Inhibition [2]: 4.56 ± 1.49 mg/mL | reduction of MIC50 of Rifampicin in cocktail with silver (control = 1) ([2]; Silver Ion at Mic 12.5): 0.74 fold | reduction of MIC50 of Tobramycin in cocktail with silver (control = 1) ([2]; Silver Ion at Mic 12.5): 0.74 fold | reduction of MIC50 of Rifampicin in cocktail with silver (control = 1) ([2]; Silver Ion at Mic 25): 2.4 fold | reduction of MIC50 of Tobramycin in cocktail with silver (control = 1) ([2]; Silver Ion at Mic 25): 2.5 fold | reduction of MIC50 of Rifampicin in cocktail with silver (control = 1) ([2]; Silver Ion at Mic 50): 6.3 fold | reduction of MIC50 of Tobramycin in cocktail with silver (control = 1) ([2]; Silver Ion at Mic 50): 6.5 fold | Amount of Antimicrobial Agent required for Inhibition [3]: 1.52 ± 0.73 mg/mL | reduction of MIC50 of Rifampicin in cocktail with silver (control = 1) ([3]; Silver Ion at Mic 12.5): 1.73 fold | reduction of MIC50 of Tobramycin in cocktail with silver (control = 1) ([3]; Silver Ion at Mic 12.5): 2 fold | reduction of MIC50 of Rifampicin in cocktail with silver (control = 1) ([3]; Silver Ion at Mic 25): 3.6 fold | reduction of MIC50 of Tobramycin in cocktail with silver (control = 1) ([3]; Silver Ion at Mic 25): 4.2 fold | reduction of MIC50 of Rifampicin in cocktail with silver (control = 1) ([3]; Silver Ion at Mic 50): 9 fold

SMILES: CN[C@H](CC(C)C)C(=O)N[C@H]1C(=O)N[C@@H](CC(N)=O)C(=O)N[C@H]2C(=O)N[C@H]3C(=O)N[C@H](C(=O)N[C@H](C(=O)O)c4cc(O)cc(O)c4-c4cc3ccc4O)[C@H](O)c3ccc(c(Cl)c3)Oc3cc2cc(c3O[C@@H]2O[C@H](CO)[C@@H](O)[C@H](O)[C@H]2O[C@H]2C[C@](C)(N)[C@H](O)[C@H](C)O2)Oc2ccc(cc2Cl)[C@H]1O [Vancomycin]
Amount of Antimicrobial Agent required for Inhibition [1]: >1000 mg/mL | in vitro antibacterial activity of individual antibiotic (MIC50) [1]: >1000 mg/mL | Amount of Antimicrobial Agent required for Inhibition [2]: >1000 mg/mL | in vitro antibacterial activity of individual antibiotic (MIC50) [2]: >1000 mg/mL | Amount of Antimicrobial Agent required for Inhibition [3]: 79.4 ± 4.1 mg/mL | in vitro antibacterial activity of individual antibiotic (MIC50) [3]: 79.4 ± 4.1 mg/mL
